The target in series [1] is T1, purified rabbit 20S proteasome (chymotrypsin-like activity) (Oryctolagus cuniculus, UniProt G1T4Q9).
T1 construct: purchased Boston Biochem
T1 sequence (G1T4Q9 1-263): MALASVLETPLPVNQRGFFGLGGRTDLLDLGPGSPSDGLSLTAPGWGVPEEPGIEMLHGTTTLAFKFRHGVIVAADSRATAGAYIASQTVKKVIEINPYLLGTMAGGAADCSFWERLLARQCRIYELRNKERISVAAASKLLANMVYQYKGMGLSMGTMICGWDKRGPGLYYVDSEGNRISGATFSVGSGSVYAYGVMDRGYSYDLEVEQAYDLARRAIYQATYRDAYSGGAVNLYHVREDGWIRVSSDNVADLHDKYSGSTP
Kind of series: Inhibition of the chymotrypsin-like activity of a purified 20S proteasome. Type of series: biochemical. Conditions: fluorogenic substrate, 2 h incubation. As for the experimental part:
We first tested the effect of these compounds on inhibiting the chymotrypsin-like activity of a purified 20S proteasome using purified EGCG as a positive control. Each of these compounds was incubated with a purified rabbit 20S proteasome and a fluorogenic substrate for chymotrypsin-like activity for 2 h. The half-maximal inhibitory concentration or IC50 was then determined.
Highly purified (-)-EGCG and dimethyl sulfoxide (DMSO) were purchased from Sigma-Aldrich. Purified 20S proteasome (rabbit) was purchased from Boston Biochem. Fluorogenic peptide substrate Suc-Leu-Leu-Val-Tyr-AMC (for the proteasomal chymotrypsin-like activity) was obtained from Calbiochem. Polyclonal antibody to ubiquitin, IκB-α̣ monoclonal anti-actin, anti-goat, anti-rabbit, and anti-mouse IgG-horseradish peroxidase were obtained from Santa Cruz Biotechnology Inc. Mouse monoclonal anitbody against human poly(ADP-ribose) polymerase (PARP) was purchased from Biomol International LP (Plymouth Meeting, PA). RPMI 1640, Penicillin and streptomycin were purchased from Invitrogen.

On the set-up of series [2]: method as in PMID 17477351. As to conditions: in vitro; cited from earlier work.
The subject of series [3] is proteasomal chymotrypsin (CT)-like activity in Jurkat T cells. Put plainly: Cellular proteasomal chymotrypsin-like activity in extracts of treated cells. Type of series: cell-based, human. As for the experimental part:
(§1) To study whether the induction of cell death by Pro-F-EGCG4 was due to its proteasome-inhibitory and apoptosis-inducing activities, Jurkat T cells were treated with 50 μM of Pro-F-EGCG4 and Pro-EGCG (1) as a control for 4, 8 and 24 h, followed by measurement of proteasome inhibition and apoptotic cell death. […] Previously, we reported that the p56 is an ubiquitinated form of IκB-α protein as a marker of proteasome inhibition, as verified by the immunoprecipitation-Western blot assay. […] Consistently, PARP cleavage fragment p85 was detected in Jurkat T cells treated with Pro-F-EGCG4 in a time-dependent manner (Fig. 3B). A p65 PARP fragment was also detected in cells treated with Pro-F-EGCG4 (Fig. 3B), indicating calpain activation occurred as well [14]. Apoptotic morphological changes were observed after 4 hours of treatment with Pro-F-EGCG4 (data not shown).
We then performed a dose-dependent experiment. Jurkat T cells were treated with Pro-F-EGCG4 or Pro-EGCG (1) at 10, 25, or 50 μM for 24 h, followed by measurement of proteasome inhibition and apoptotic cell death.
(§2) Human leukemia Jurkat T cells were cultured in RPMI 1640 medium supplemented with 10% fetal calf serum, 100 units/mL of penicillin, and 100 μg/mL of streptomycin. Cells were maintained at 37 °C in a humidified incubator with an atmosphere of 5% CO2. Jurkat T cells were treated by selected compounds at various concentrations for indicated hours (see figure legends for details), and a whole-cell extract was then prepared as described previously. Briefly, cells were harvested, washed with PBS, and homogenized in a lysis buffer (50 mM, Tris-HCl, pH 8.0, 150 mM NaCl, 0.5% NP-40, 0.5 mM penylmethylsulfonyl fluoride, and 0.5 mM dithiothreitol) at 4 °C. Afterwards, the lysates were centrifuged at 12,000 × g for 15 min at 4 °C and the supernatants collected as whole-cell extracts.
Human leukemia Jurkat T cells were treated with each compound at indicated concentration for indicated hours (see the figure legends for details), harvested, and lysed as described previously. Whole cell extracts were prepared as detailed in section 3.4, aliquoted and kept at −80 °C. One of the aliquots was used for determination of protein concentration. After that, whole cell extracts (10 μg) from each preparation were incubated with Suc-Leu-Leu-Val-Tyr-AMC (20 μM) fluorogenic substrate at 37°C in 100 μl of assay buffer (50 mM Tris-HCL, pH 7.5) for 2 h. After incubation, production of hydrolyzed 7-amino-4-methylcoumarin (AMC) groups was measured using a Victor^3 Multilabel Counter with an excitation filter of 380 nm and an emission filter of 460 nm (PerkinElmer, Boston, MA, USA).

For series [4], the system named is human breast cancer xenografts. Also noted: method as in PMID 17483343. As to conditions: human breast cancer xenografts in mice; cited from earlier work.
The subject of another series is Jurkat T cells. Put plainly: Western blot of ubiquitinated IκB-α (p56), ubiquitinated proteins and PARP cleavage. Type of series: cell-based, human. Conditions: for p56 IκB-α (ubiquitinated form), Western blot: 50 μM; for accumulation of ubiquitinated proteins, Western blot: Jurkat T cells, 10, 25 or 50 μM. As for the experimental part: as §1, §2
Analysis of IκB-α, PARP, and ubiquitinated proteins was performed using monoclonal or polyclonal antibodies, according to previously reported protocols.
In general terms: Immunoblotting shows a protein as a band on a membrane.

Series [5] concerns caspase-3/7 activities in Jurkat T cells. Kind of series: Caspase-3/7 activity in extracts of treated cells. As to conditions: 50 μM, 24 h (dose-dependent experiment). The format is cell-based, human. As for the experimental part:
as §1
Human leukemia Jurkat T cells were cultured in RPMI 1640 medium supplemented with 10% fetal calf serum, 100 units/mL of penicillin, and 100 μg/mL of streptomycin. Cells were maintained at 37 °C in a humidified incubator with an atmosphere of 5% CO2. […]
Cells were treated with each compound at indicated concentration for indicated hours, harvested, and lysed as described previously. Ac-DEVD-AMC (40 μM) was then incubated with the prepared cell lysates for 2 h and the caspase-3 activity was measured as described previously.

Series [6] has as its system Human leukemia Jurkat T cells. Kind of series: Trypan blue dye exclusion cell death assay. Type of series: cell-based. Conditions: 50 μM, 24 h. As for the experimental part:
We first tested whether these Pro-F-EGCGs could induce cell death in tumor cells. Human leukemia Jurkat T cells were treated with 50 μM of each analog for 24 h, followed by Trypan-blue exclusion assay. Blue cells and cells with apoptosis-associated morphological changes (shrunken, blebbing, etc) were scored as dead cells. Pro-EGCG (1) and DMSO were used as controls.
The Trypan blue dye exclusion assay was performed by mixing 20 μL of cell suspension with 20 μL of 0.4% Trypan blue dye before injecting into a hemocytometer and counting. The number of cells that absorbed the dye and those that exclude the dye were counted, from which percentage of nonviable cell number over the total cell number was calculated.
as §2

Setting [7] is: Jurkat T cells, 50 μM, 4, 8 and 24 h.
Setting [8] is: Jurkat T cells, 10, 25 or 50 μM, 24 h.

The structures appear in SMILES notation.

The term IC50 denotes the concentration that inhibits the measured activity by half. A low value points to greater potency in that assay. In series [1], `O=C(O[C@@H]1Cc2c(O)cc(O)cc2O[C@@H]1c1cc(O)c(O)c(O)c1)c1cc(O)c(O)c(O)c1` [(-)-EGCG, (-)-epigallocatechin-3-gallate, reference compound] returned an IC50 of 680 nM.

In series [1], `O=C(O[C@@H]1Cc2c(O)cc(O)cc2O[C@@H]1c1cc(O)c(O)c(O)c1)c1ccccc1F` [F-EGCG1, (-)-(2R, 3R)-5,7-dihydroxy-2-(3,4,5-trihydroxyphenyl)chroman-3-yl 2-fluorobenzoate] returned an IC50 of 1250 nM.

In series [1], `O=C(O[C@@H]1Cc2c(O)cc(O)cc2O[C@@H]1c1cc(O)c(O)c(O)c1)c1cccc(F)c1` [F-EGCG2] registered a concentration for half-maximal inhibition (IC50) of 840 nM.

`O=C(O[C@@H]1Cc2c(O)cc(O)cc2O[C@@H]1c1cc(O)c(O)c(O)c1)c1ccc(F)cc1` [F-EGCG3] showed an IC50 in series [1] of 1900 nM. Against the preceding compound, the IC50 is about 2.3-fold higher.

Compound `O=C(O[C@@H]1Cc2c(O)cc(O)cc2O[C@@H]1c1cc(O)c(O)c(O)c1)c1ccc(F)c(F)c1` [F-EGCG4] came in with an IC50 in series [1] of 650 nM.

Take `CC(=O)Oc1cc(OC(C)=O)c2c(c1)O[C@H](c1cc(OC(C)=O)c(OC(C)=O)c(OC(C)=O)c1)[C@H](OC(=O)c1cc(OC(C)=O)c(OC(C)=O)c(OC(C)=O)c1)C2` [Pro-EGCG (1), reference compound]: in series [2], the “cellular permeability and stability compared with natural EGCG” value was “significantly enhanced”. Further, the results for the “proteasomal CT-like activity in treated cells” value in series [3] (setting [7]) and in series [3] (setting [8]) were “decrease in the level of the proteasomal CT-like activity in a time-dependent manner” and “showed inhibition”, respectively. In addition, the “anti-tumor activity compared with natural EGCG” value in series [4] was “greater anti-tumor activity”. For the same compound, in the series with Jurkat T cells (Jurkat T cells, all the time points (4, 8, 24 h)), the “p56 IκB-α (ubiquitinated form), Western blot” value was “increased level”. Besides, the “accumulation of ubiquitinated proteins, Western blot” value in the series with Jurkat T cells (24 h) was “accumulation of ubiquitinated proteins”. Further, the “caspase 3/7 activity, induction” value in series [5] was found to be 6 fold. For the same compound, the “cell death (dead cells over total cell population)” value in series [6] was ~ 70%.

For `CC(=O)Oc1cc(OC(C)=O)c2c(c1)O[C@H](c1cc(OC(C)=O)c(OC(C)=O)c(OC(C)=O)c1)[C@H](OC(=O)c1ccccc1F)C2` [Pro-F-EGCG1, (-)-(2R, 3R)-5,7-Diacetoxy-2-(3,4,5-triacetoxyphenyl)chroman-3-yl 2-fluorobenzoate], the “cell death (dead cells over total cell population)” value in series [6] worked out at 44%.

In the case of `CC(=O)Oc1cc(OC(C)=O)c2c(c1)O[C@H](c1cc(OC(C)=O)c(OC(C)=O)c(OC(C)=O)c1)[C@H](OC(=O)c1cccc(F)c1)C2` [Pro-F-EGCG2, (-)-(2R, 3R)-5,7-Diacetoxy-2-(3,4,5-triacetoxyphenyl)chroman-3-yl 3-fluorobenzoate], the “cell death (dead cells over total cell population)” value in series [6] is 90%.

`CC(=O)Oc1cc(OC(C)=O)c2c(c1)O[C@H](c1cc(OC(C)=O)c(OC(C)=O)c(OC(C)=O)c1)[C@H](OC(=O)c1ccc(F)cc1)C2` [Pro-F-EGCG3, (-)-(2R, 3R)-5,7-Diacetoxy-2-(3,4,5-triacetoxyphenyl)chroman-3-yl 4-fluorobenzoate]: the “cell death (dead cells over total cell population)” value in series [6] worked out at 30%.

With `CC(=O)Oc1cc(OC(C)=O)c2c(c1)O[C@H](c1cc(OC(C)=O)c(OC(C)=O)c(OC(C)=O)c1)[C@H](OC(=O)c1ccc(F)c(F)c1)C2` [Pro-F-EGCG4, (-)-(2R,3R)-5,7-Diacetoxy-2-(3,4,5-triacetoxyphenyl)chroman-3-yl 3,4-difluorobenzoate], the “proteasomal CT-like activity in treated cells” value in series [3] (setting [7]) is listed as “decreased level”; in series [3] (setting [8]), “inhibited the proteasomal CT-like activity in a dose-dependent manner”. In the series on Jurkat T cells (setting [7]), the “PARP cleavage fragment p85, Western blot” value is “detected”. Also, the “p56 IκB-α (ubiquitinated form), Western blot” value is “induced the appearance” in the series with Jurkat T cells (Jurkat T cells, 4 or 8 h) and “not detected” with Jurkat T cells (Jurkat T cells, 24 h). Besides, the “accumulation of ubiquitinated proteins, Western blot” value in the series on Jurkat T cells (24 h) was “caused accumulation of ubiquitinated proteins in a dose-dependent manner”. The “cell death (dead cells over total cell population)” value in series [6] is reported as 90%.

These data come from PMC2658777, “Prodrugs of Fluoro-Substituted Benzoates of EGC as Tumor Cellular Proteasome Inhibitors and Apoptosis Inducers” (International Journal of Molecular Sciences, 2008).
